From patent publication US20050143336A1 (priority 2003, published 2005)
Entries after “also recorded” stand apart in the source; their conditions may differ. Like-named read-outs stand apart in the source and are kept apart here.

Experiments:
[1] = system: proinflammatory cytokines (TNF, IL-1, IL-6, IFN-γ); type: in vivo, C3H mice
Description: In vivo treatment of immunocompetent animals by intravenous injection of DOTAP:Cholesterol-FUS1 complex. Female C3H mice were divided into 2 groups (n=15/group). […] Complexes were injected intravenously via the tail vein using a total volume of 200 μl. […] Blood from animals in all groups were collected at 2, 4, 6, and 15 h after injection of liposome-DNA complex, and analyzed for proinflammatory cytokines (TNF, IL-1, IL-6, IFN-γ) by ELISA (R&D Systems).

C3H mice = type: in vivo; settings: for protection: alive on day 14
Description: In vivo treatment of immunocompetent animals by intravenous injection of DOTAP:Cholesterol-FUS1 complex. Female C3H mice were divided into 3 groups (n=5/group). […] Complexes were injected intravenously via tail vein in a total volume of 200 μl. Animals were monitored initially at 1, 2, 6, 24, 48 hr and later every day until day 14. Animals that appeared morbid or moribund were euthanized by CO2 inhalation and various organs (lung, liver, kidneys, spleen, heart) were collected in buffered formalin and submitted for histopathological examination. Organs were also collected from animals that were dead, and these were submitted for histopathological analyses.

[2] = system: p38MAPK, pJNK, p44/42MAPK, pATF-2, pc-Jun, COX-2 in MRC-9 fibroblast cells; test: Inflammation-associated signaling molecules in MRC-9 cells transfected with FUS1-nanoparticles (western blot); type: cell-based, Human; settings: naproxen 0.5 mM prior to FUS1-nanoparticles
Description: In vitro experiments. To determine the effect of FUS1-nanoparticles on the activation of signaling molecules associated with inflammation, MRC-9 fibroblast cells were seeded in six-well plates (5×10^5 cells/well) and incubated overnight at 37° C. and 5% CO2. […] Two-three hours after treatment, cells were transfected with FUS1-nanoparticles (2.5 μg DNA) in 0.2% serum medium. Cells were harvested at different time-points (2 h, 4 h, 15 h) after transfection, washed, and cell lysates prepared as previously described (Ramesh et al., 2001a). Untransfected cells treated with PBS served as control in these experiments. Cell lysates were subjected to western blotting analysis and probed with various antibodies as previously described (Ramesh et al., 2001b; Ito et al., 2003). In all the experiments, β-actin was detected using anti-β-actin antibody (Sigma Chemicals, St. Louis, Mo.) as a measure of internal loading control.

AP-1 = AP-1 DNA binding activity, electrophoretic mobility shift assay in MRC-9 cells; type: cell-based, Human; settings: naproxen pretreatment before FUS1-nanoparticles
Description: Electrophoretic mobility shift assay (EMSA). MRC-9 cells were seeded in six well plates at 1.3×10^6 cells/well for EMSA. […] Cells were harvested at 2, 4 and 15 h after transfection and nuclear extracts prepared. To the nuclear extracts (10 μg), DNA binding reaction mixture containing [γ-^32P]-ATP radiolabeled AP-1 oligonucleotide and 0.5 μg poly (dI-dC) were added and incubated at 25° C. for 30 min in 5× gel shift binding buffer [20% glycerol, 5 mM MgCl2 2.5 mM EDTA, 2.5 mM DTT, 250 mM NaCl, 50 mM Tris-HCl (pH 7.5)]. The complexes were subsequently resolved on 5% nondenaturing polyacrylamide gels in 0.5×Tris-borate EDTA buffer for 1 h 30 min at 300 V. The bands were visualized by autoradiography.

luciferase expression = test: Luciferase transgene expression in cells transfected with luc-nanoparticles; type: cell-based, Human; settings: naproxen prior to luc-nanoparticles; 2 h, 4 h, 15 h
Description: To determine the effect of inhibitors on transgene expression, cells were transfected with a marker gene, luciferase (luc), complexed with DOTAP:Chol. nanoparticles (luc-nanopartilces). All other experimental conditions were the same as described above. Luciferase expression was determined using the luciferase assay kit (Promega, Madison, Wis.) as previously described (Ramesh et al., 2001b). Luciferase expression was expressed as relative light units per mg of protein (RLU/mg). Assays were performed in triplicates. Experiments were performed two times and the results represented as the average of two separate experiments.

[3] = system: p38MAPK, pJNK, p44/42MAPK, pATF2, pc-JUN, COX-2 in lung tissues; test: Inflammation-associated signaling molecules in lung tissues after FUS1-nanoparticles (western blot); type: in vivo, C3H mice; settings: naproxen prior to FUS1-nanoparticles
[4] = system: p38, JNK, ERK, pATF2, pcJun, STAT3, COX-2; test: Western blot of signaling molecules in lung, liver and spleen after FUS1-nanoparticle with or without naproxen; type: in vivo, C3H mice
Description: Western blot analysis for the Signaling molecules. At the time of western blot analysis, organs were slowly thawed on ice. […] Whole Cell lysates were collected in an Eppendorf tube and sonicated for 30 seconds and heated in a water bath at 95° C. for 5 mins and then centrifuged at 13000 rpm for 10 min at 4° C. The supernatants were mixed with 5% 2-mercaptoethanol and stored at −80° C. Protein concentrations was determined by BCA protein assay. Aliquots of cell extracts containing 50 μg of total protein were resolved in 10% SDS-PAGE and transferred from gel to nitrocellulose membrane (Hybond-ECL; Amersham Pharmacia Biotech, UK) and then blocked for 1 h at room temperature (5% nonfat milk powder and 0.1% Tween 20 in TBS or PBS). Then the membranes were incubated with the primary antibodies, phosphospcific p38 (1:1000), phosphospecific pJNK (1:1000), phosphospecific p44/42 (1:1000), phospho ATF2 (1:1000), phospho cJun (1:1000), phospho STAT3 (1:1000) and COX-2 (1:1000). The membranes were then incubated with HRP-conjugated rabbit IgG Ab (Amersham) and the bound antibodies were visualized by enhanced chemiluminescence (Amersham; Piscataway, N.J.). The expression of α-actin was used as the loading control.

[5] = system: NFκB and STAT3 DNA binding; test: Electrophoretic mobility shift assay of lung nuclear extracts for NFκB and STAT3; type: in vivo, C3H mice; settings: in the presence of naproxen
Description: Electrophoretic mobility shift assay. […] Santa Cruz Biotechnology, Santa Cruz, Calif.) and NF-κB consensus oligonucleotide […] These probes were end-labelled with [γ-^32P]ATP(3000 Ci/mmol at 10 mCi/ml; Amersham Biosciences, Sunnyvale, Calif.). DNA binding reactions were performed at room temperature in a 25-μl reaction mixture containing 6-μl of nuclear extract and 5 μl of 5× binding buffer (20% (w/v) Ficoll, 50 mM HEPES (pH 7.9), 5 mM EDTA, 5 mM DTT). […] Samples were electrophoresed through 5.5% polyacrylamide gels in 0.5×TBE at 160 V for 3 h, dried under vacuum, and exposed to X-ray film after overnight expose with hyperfilm at -80° C. The gel was then dried and subjected to autoradiography. […] The minced tissue was homogenized using a Dounce homogenizer and centrifuged at 14,000 rpm at 4° C. for 10 min. […] The supernatant (nuclear extract) was collected and stored at -80° C. until use. The protein concentrationm was measured by the method of Bradford with BSA as the standard. […] Briefly, Double-stranded oligonucleotides consensus NFκB (Promega) were end-labelled with [γ-^32P]-ATP using T4 polynucleotide kinase. […] The bands were visualized by autoradiography.

[6] = system: TNF-α, IL-6 and PGE2 production in RAW 264.7 cells; test: Inflammatory cytokines production assay in RAW 264.7 macrophage cells; type: cell-based, Mouse; settings: RAW 264.7, naproxen 0.5 mM before FUS1-nanoparticle
Description: The following day, tissue culture medium was replaced with fresh 0.2% medium and incubated overnight at 37° C. and 5% CO2. […] Assay was performed according to manufacturer's protocol.

lung tumor cells = settings: luc-nanoparticles in the presence of naproxen
mouse TNF-α = settings: naproxen 15 mg/Kg orally 3 h prior to FUS1-nanoparticles 100 μg DNA i.v.
Description: In vivo experiments. To determine the effect of intravenous administration of FUS1-nanoparticles on inflammation and the potential use of inhibitors, in vivo experiments were conducted in immunocompetent female C3H mice. Mice were divided into three groups (n=5/group). […] Group 3 received intravenous injection of FUS1-nanoparticles only. The amount of plasmid DNA injected was 100 μg. […] At 2 h, 4 h, 6 h and 15 h after treatment with FUS1-nanoparticles, animals were euthanized and blood and organs (lung, liver, spleen) collected. Blood samples were analyzed for mouse TNF-α by ELISA (R&D Systems, MI). Tissue samples were analyzed for expression of inflammation-associated signaling molecules by western blotting (Ito et al., 2003).

[7] = system: luciferase expression in RAW 264.7 cells; settings: RAW 264.7, 0.5 mM naproxen pretreatment
Description: To determine the effect of inhibitors on transgene expression, cells were transfected with a marker gene, luciferase (luc), complexed with nanoparticle. All other experimental conditions were the same as described above. […] Luciferase expression was expressed as relative light units per mg of protein (RLU/mg). Assays were performed in triplicates. Experiments were performed two times and the results represented as the average of two separate experiments.

For `COc1ccc2cc([C@H](C)C(=O)O)ccc2c1` [Naproxen, naproxen], the “reduction in all of the cytokine levels” value ([1]; naproxen 15 mg/kg 2 hour before DOTAP:Chol-FUS1 complex (100 μg DNA) i.v., serum) was 50%, the “proinflammatory cytokine production, effect of naproxen” value ([1]; naproxen 15 mg/kg before complex) was “significant suppression of proinflammatory cytokine production” and the protection (C3H mice; naproxen 5 mg/kg orally 2 hour prior to complex (100 μg DNA) i.v.) was 60%. The protection (C3H mice; naproxen 15 mg/kg orally 2 hour prior to complex (100 μg DNA) i.v.) was 100%, the “Diagnosis (histopathology)” value (C3H mice; naproxen before complex, 15 hr) was “almost completely prevented all the inflammatory features except moderate lymphoid atrophy spleen” and the “expression of downstream substrates pATF-2, pc-Jun and COX-2” value [2] was “decreased expression”. For the same molecule, the “expression of p38MAPK, pJNK and p44/42MAPK” value [2] was “significant inhibition”, the “AP-1 DNA binding activity” value (AP-1) was “inhibition of AP-1 activity” and the “luciferase activity (RLU/mg protein), naproxen treated vs untreated” value (luciferase expression) was “greatly increased; also recorded: slight increase in luciferase activity”. For the same molecule, the “activation of signaling molecules in lung” value [3] was “markedly suppressed”, the “phosphorylation of JNK, ATF-2, cJun, STAT3 ser727 and Tyr 705 in liver and spleen” value ([4]; naproxen 15 mg/kg) was “inhibited” and the “p38 phosphorylation in lung” value ([4]; naproxen 15 mg/kg 2 h before FUS1-nanoparticle, all time points) was “complete inhibition”. The “JNK and ERK phosphorylation in lung” value ([4]; naproxen 15 mg/kg, 2 and 4 h) was “partial inhibition”, the “COX-2 induced by FUS1-nanoparticle” value ([4]; naproxen 15 mg/kg, 2 h) was “inhibition” and the “phosphorylation of ATF-2, cJUN and STAT3 (Ser 727, Tyr705) in lung” value ([4]; naproxen 15 mg/kg, 4 h and 15 h) was “inhibited”. For the same molecule, the “activation of NFκB and STAT3 in lung” value [5] was “suppressed”, the “production of TNF-α, IL-6 and PGE2” value [6] was “suppressed” and the transgene expression (lung tumor cells) was “Enhanced transgene expression”. For the same molecule, the “TNF-α expression levels in blood at 2 h” value (mouse TNF-α) was 411 pg/mL and the “transgene (luciferase) expression” value [7] was “did not inhibit transgene (luciferase) expression but rather slightly enhanced the transgene expression over time”.
